Measurements taken from US9815833B2, “Pyridine derivative and medical use thereof” (Chengdu Easton Biopharmaceuticals Co., Ltd., priority 2013, dated 2017).

Legend:
APTT of healthy mice = experiment: Effects on APTT of healthy mice; format: in vivo, KM mice; conditions: 5 mg/kg i.g.; for APTT (sec): KM mice, blood collected 1 hour after administration, x ± SD, 10 mice per group; for anticoagulant effect (APTT) compared with positive drug Apixaban: mice, 1 h after administration, same dose
Text: Test for four coagulation parameters (including prothrombin time (PT), activated partial thromboplastin time (APTT), thrombin time (TT) and fibrinogen (FIB)) belongs to one of clinical inspection items, and is necessary to thrombotic disease inspections or before the surgery. APTT mainly reflects whether the intrinsic coagulation system status is normal or not. Accordingly, the APTT value is used as a detection indicator in this test of the present invention. The anticoagulant effects of the compounds prepared in the Examples of the present invention were evaluated through the effects thereof on APTT of mice.
(§1) KM mice, weighing 28-30 g, male, 170 mice, provided by Chengdu Dashuo Biological Technology Co., Ltd.; Production facility license: SCXK (Chuan) 2008-24. Animals were housed in the animal room after purchased, adaptively observed for at least three days, and used for assays unless they were qualified for the quarantine standard.
(1) Grouping: mice were grouped and tested according to Table 1, wherein there were 10 mice in each group.
Mice in each group were administrated with the corresponding investigational drugs (mice in control group were administrated with the normal saline). At 1 hour after administration, blood was collected into 0.5 ml vacuum blood-collection tube containing sodium citrate from mice orbit. APTT values of animals were measured after collecting the blood samples.
Excel was used for statistics, experimental data were expressed as (x±SD), and two-sided T-test method was used to statistically compare the experimental data among multiple groups.

[1] = Pharmacokinetic studies on healthy rats; format: in vivo; conditions: male, rat, po, SD rats, 10 mg/kg i.g., plasma; for AUC(0-t): read-out: AUC0-24
Text: SD rats were used as test animals, and LC/MS/MS method was applied for measuring the drug concentrations of rats at different time after administrating the compounds of the present invention by gavage, respectively. Pharmacokinetic behaviors of the compounds of the present invention on rats were studied, so as to evaluate the pharmacokinetic characteristics thereof.
as §1, with “SD rats,” for “KM mice,”, “180-220” for “28-30”, “40 rats, 5 rats in each group,” for “170 mice,”
3.1 Grouping: the rats were randomly grouped according to Table 3, with no significant difference among the groups;
Rats in each group was administrated by gavage with the corresponding investigational drugs according to Table 3, at 5 min, 10 min, 20 min, 30 min, 1 h, 2 h, 4 h, 6 h, 8 h, 10 h, 12 h, 24 h after administration, 0.5 ml of blood was taken into the vacuum blood-collection tubes containing heparin sodium, and centrifuged at 5,000 rpm to obtain plasma which was stored at −20° C.
50 μL plasma at each time after administration was taken, then 150 μL of acetonitrile was added, which was subjected to vortex at 1500 rpm for 2 minutes. Solution was centrifuged for 15 minutes (3500 r/min), after that 10 μL supernatant was analyzed by HPLC/MS/MS.
The pharmacokinetic behaviors of the investigational compounds were subjected to compartmental model fitting, and DAS 2.0 software was used to calculate the main pharmacokinetic parameters.

human FXa = human FXa (Homo sapiens, UniProt P00742); experiment: Human FXa inhibition assay (fluorogenic substrate); format: biochemical; conditions: human FXa 1 nM, substrate 106.7 μM, 30 minutes at room temperature, pH 8.0
human FXa, sequence (P00742 235-488 limits assumed): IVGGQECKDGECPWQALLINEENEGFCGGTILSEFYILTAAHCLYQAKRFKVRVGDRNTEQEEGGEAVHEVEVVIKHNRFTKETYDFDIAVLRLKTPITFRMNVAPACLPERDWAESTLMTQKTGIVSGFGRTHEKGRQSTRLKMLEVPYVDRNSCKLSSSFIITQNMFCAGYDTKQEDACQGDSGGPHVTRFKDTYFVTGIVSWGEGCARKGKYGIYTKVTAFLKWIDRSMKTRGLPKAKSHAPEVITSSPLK
human FXa, sequence (P00742 41-179 partner limits assumed): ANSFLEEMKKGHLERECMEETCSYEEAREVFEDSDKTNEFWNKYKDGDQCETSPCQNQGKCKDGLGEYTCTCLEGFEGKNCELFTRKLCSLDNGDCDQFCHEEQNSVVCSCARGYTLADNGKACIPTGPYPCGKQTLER
Experimental: Inhibitory effects of the compounds of the present invention on human FXa were studied, to measure IC50 values thereof on human FXa.
human FXa enzyme (Sekisui Diagnostics, REF 526);
Fluorogenic substrate for the FXa assay (American diagnostic, Product No. 222F);
Buffer: 20 mM Tris-HCl, 200 mM NaCl, 2.5 mM CaCl2, pH 8.0.
(2) 10 mM of each compound was 5-fold diluted serially with buffer to different concentrations (from 40 μM to 0.00002048 μM);
(3) 6 μL of the above diluted solutions of Step (2) were added into each well of 384-well plate to make a final volume of 60 μL, and the final concentration of the compound ranged from 4 μM to […];
(4) 30 μL of human FXa enzyme (2 nM) was added into each well, with a final concentration of 1 nM;
(5) 24 μL human FXa fluorescent enzyme substrate (266.7 μM) was added into each well, with a final concentration of 106.7 μM;
(6) the plate was gently shaked for 5 minutes and then incubated for 30 minutes at room temperature, with avoidance from light;
(7) fluorescence signal was read at 360/440 nm, the inhibition percentage was measured, and 4 Parameter Logistic Model in Xlfit software was employed to calculate IC50.

Row | Cmax [1] [ng/mL] | Tmax [1] [h] | half-life [1] [h] | AUC(0-t) [1] [ng·h/mL] | IC50 (human FXa) [nM] | SMILES | APTT (sec) (APTT of healthy mice) | anticoagulant effect (APTT) compared with positive drug Apixaban (APTT of healthy mice)
1 | 9670 | 0.25 | 6.8 | 38600 | 0.015 | Cc1cc(N2CCc3c(C(N)=O)nn(-c4cc(F)cc(F)c4)c3C2=O)ccc1N1CCCC1=O [Example 17, 1-(3,5-difluoro-phenyl)-7-oxo-6-[3-methyl-4-(2-oxo-pyrrolidin-1-yl)phenyl]-4,5,6,7-tetrahydro-1H-pyrazolo[3,4-c]pyridine-3-carboxamide] | 30.79 ± 2.91 * * ^ΔΔ sec | significantly better than positive drug Apixaban
2 | 8970 | 0.25 | 6.8 | 35500 | 0.091 | COc1ccc(-n2nc(C(N)=O)c3c2C(=O)N(c2ccc(N4CCCC4=O)c(C)c2)CC3)cc1F [Example 18, 1-(3-fluoro-4-methoxyphenyl)-7-oxo-6-[3-methyl-4-(2-oxo-pyrrolidin-1-yl)phenyl]-4,5,6,7-tetrahydro-1H-pyrazolo[3,4-c]pyridine-3-carboxamide] | 28.96 ± 2.42 * * ^ΔΔ sec | significantly better than positive drug Apixaban
